Test results published in ChEMBL document CHEMBL1201862, “PubChem BioAssay data set” (2004).
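Values below derive from 48-hour exposures of cells grown in 96-well plates, with endpoints linearly interpolated between the two concentrations bracketing the appropriate inhibition level. GI50 = concentration required for 50% inhibition of growth.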 Activity calls are given as the source filed them. No stated cut-off is given here; in the data, active = GI50 up to about 1.1 µM and inactive = higher.

Legend:
Assay in all cases: NCI anticancer screen, dose series, 48 h
[1] = tested on: CCRF-CEM
[2] = tested on: COLO 205
[3] = tested on: DLD-1
[4] = tested on: DMS-273
[5] = tested on: HCC 2998
[6] = tested on: HL-60
[7] = tested on: IGROV-1
[8] = tested on: K562
[9] = tested on: KM-20L2
[10] = tested on: KM12
[11] = tested on: NCI-H23
[12] = tested on: OVCAR-3
[13] = tested on: RPMI-8226
[14] = tested on: RXF 393
[15] = tested on: SF-268
[16] = tested on: SK-OV-3
[17] = tested on: SNB-19
[18] = tested on: SW-620
[19] = tested on: U-251
[20] = tested on: UACC-257

| SMILES | GI50 [1] | GI50 [2] | GI50 [3] | GI50 [4] | GI50 [5] | GI50 [6] | GI50 [7] | GI50 [8] | GI50 [9] | GI50 [10] | GI50 [11] | GI50 [12] | GI50 [13] | GI50 [14] | GI50 [15] | GI50 [16] | GI50 [17] | GI50 [18] | GI50 [19] | GI50 [20] |
| --- | --- | --- | --- | --- | --- | --- | --- | --- | --- | --- | --- | --- | --- | --- | --- | --- | --- | --- | --- | --- |
| COc1cc(C2c3cc4c(cc3[C@@H](Nc3cnc5ccccc5c3)C3COC(=O)[C@H]23)OCO4)cc(OC)c1O (stereo partly drawn) | 43 nM (active) | 1280 nM (inactive) | 1050 nM (active) | 47 nM (active) | 794 nM (active) | < 33 nM (active) | 1390 nM (inactive) | 649 nM (active) | 1470 nM (inactive) | 883 nM (active) | 311 nM (active) | 1650 nM (inactive) | 159 nM (active) | 912 nM (active) | 327 nM (active) | 615 nM (active) | 221 nM (active) | 296 nM (active) | 238 nM (active) | 839 nM (active) |
| CC1(C)N=C(N)N=C(N)N1c1ccc(OCCCOc2ccccc2)c(Cl)c1 | 175 nM (active) | 112 nM (active) | 1510 nM (inactive) | 26.2 nM (active) | 315 nM (active) | 32.2 nM (active) | < 30.1 nM (active) | 2480 nM (inactive) | 71.5 nM (active) | 122 nM (active) | 239 nM (active) | 406 nM (active) | 547 nM (active) | 479 nM (active) | 58.5 nM (active) | 7310 nM (inactive) | 37.9 nM (active) | 35.6 nM (active) | < 23.6 nM (active) | 766 nM (active) |
| C=C1C(=O)OC2C1CC1OC2C(C)CCC/C(C)=C\CCC1(C)O (stereo not drawn) | 6820 nM (inactive) | 15800 nM (inactive) | 18700 nM (inactive) | 16200 nM (inactive) | 20300 nM (inactive) | 5610 nM (inactive) | 13900 nM (inactive) | 12700 nM (inactive) | 29700 nM (inactive) | 19800 nM (inactive) | 9250 nM (inactive) | 9750 nM (inactive) | 7600 nM (inactive) | 5700 nM (inactive) | 13000 nM (inactive) | 65300 nM (inactive) | 49100 nM (inactive) | 10900 nM (inactive) | 41300 nM (inactive) | 22600 nM (inactive) |
| C[C@]12CC[C@H](O)C=C1CC[C@@H]1[C@@H]2CC[C@]2(C)C(c3ccc(=O)oc3)CC[C@]12O (stereo partly drawn) | 12.5 nM (active) | 33 nM (active) | 17.4 nM (active) | 12.5 nM (active) | 37.2 nM (active) |  | 14.1 nM (active) | 12.5 nM (active) | 24.4 nM (active) | 33.6 nM (active) | 12.5 nM (active) | 12.5 nM (active) | 12.5 nM (active) |  | 12.5 nM (active) | 29.4 nM (active) | 32.7 nM (active) | 14.9 nM (active) | 15.3 nM (active) | 18.1 nM (active) |
| CCN(CC)CCCNc1ncc(C)c2[nH]c3ccncc3c12 | 21600 nM (inactive) | 4130 nM (inactive) | 31000 nM (inactive) | 7260 nM (inactive) | 8610 nM (inactive) | 22000 nM (inactive) | 5370 nM (inactive) | 14800 nM (inactive) | 6240 nM (inactive) | 6180 nM (inactive) | 12700 nM (inactive) | 12200 nM (inactive) | 50500 nM (inactive) | 6610 nM (inactive) | 6750 nM (inactive) | 5820 nM (inactive) | 15100 nM (inactive) | 4710 nM (inactive) | 7210 nM (inactive) | 12500 nM (inactive) |
